Laboratory results published in patent US20020127282A1, “Multivalent silver pharmaceuticals” (priority 1991, published 2002).
Like-named read-outs stand apart in the source and are kept apart here.

Tests used:
[1] = test system: Streptococcus ogalactiae 27956
Procedure: (§4) Once it could be determined that the devices inhibited a particular microorganism, the minimal concentration required of Ag4O4 was determined to inhibit the microorganism in nutrient broth. Strains of gram positive bacteria were chosen for the evaluation. […] Accordingly, three staph strains were selected as follows for evaluation: Staphylococcus aureus 9027 and 27543, and Staphylococcus epidermidis 12228. The inoculum nutrient broth was prepared according to AOAC specifications so as to contain 0.6-1 million organisms per drop of inoculum, each drop being equal to 0.05 ml. The broth itself was trypticase soy broth BBL 11766 prepared according to label instructions. Accordingly, the broth was prestandardized for the microorganisms in question in order to assure that the number of organisms remained constant within the margins of statistical allowance during the test period.

Candida albercans = details: Sabouraud dextrose broth
Streptococcus faecalis = details: 0.5 PPM; within 0.5 minutes; 10 PPM sodium persulfate; AOAC protocol
Procedure: (§5) Select compounds of said moieties were also evaluated against algae utilizing Chorella species incubated for 10 days in algae nutrient. […] It was evaluated at 0.5 and 1.0 PPM on gram positive and negative cultures in the presence of 10 PPM sodium persulfate.

[2] = rats
Procedure: (§1) Tests were conducted to see whether said tetroxide posed any harm to the human body. Accordingly, a 3% concentrate of the compound was prepared for a series of evaluations.
The first evaluation met the requirements of Code of Federal Regulations (40 CFR 160). It consisted of determining the single dose toxicity in rats or LD50.

[3] = rabbits, dermal application
Procedure: as §1
The second evaluation was for acute dermal toxicity in rabbits. The protocol, 40 CFR 158.135, 81-2, was to determine the LD50 for dermal application.

[4] = crystal concentrate applied
Procedure: as §1
The fourth evaluation dealt with primary eye irritation. This also was in conformity with 40 CFR 160.

Staphylococcus aureus = details: 24 hours at 34-35° C., 10 PPM sodium persulfate
Procedure: as §4

[5] = albino rabbits, oxide concentrate
Procedure: as §1
The third evaluation, entitled “Primary Dermal Irritation in Albino Rabbits”, conformed to 40 CFR 160. It consisted of exposing the rabbits for prolonged periods of time and observing edema, erythema, ulceration, necrosis and any other evidence of dermal reactions or tissue destruction.

Chorella species = type: cell-based; details: within 5 minutes; Chorella species incubated for 10 days in algae nutrient
Procedure: as §5

[6] = test system: Enterobacter cloacac 13047; details: concentration not given
E. coli [7] = details: 0.5 PPM; within 0.5 minutes; 10 PPM sodium persulfate; AOAC protocol
Procedure: as §5

[8] = test system: Pseudomonas aeruginosa 9027; details: concentration not given
Procedure: (§2) More stringent testing was then performed in which the cultures were actually placed in trypticase soy nutrient broth, which allowed the pathogens being tested to replicate without being detached from its own food supply.

[9] = test system: Streptococcus faecalis strain 10541; details: trypticase soy nutrient broth
Procedure: as §2

E. coli [10] = details: trypticase soy nutrient broth
Procedure: as §2

[11] = test system: Streptococcus pyogenes 7958
Procedure: (§3) Both the prepared and commercial materials were submitted for bactericidal evaluation following “good laboratory practice” regulations as set forth in Federal regulations (FIFRA and ffdca/40 CFR 150, May 2, 1984). The silver materials were tested as to whether they could kill pathogenic microorganisms with the intent of utilizing them in pharmaceutical applications. […] Strains of gram positive bacteria were chosen for the evaluation. One family of pathogens that are known for their deleterious effects on humans are popularly called “staph” infections. These infections are commonly contracted in hospitals having lax infectious screening procedures. Accordingly, three staph strains were selected as follows for evaluation: Staphylococcus aureus 9027 and 27543, and Staphylococcus epidermidis 12228. The inoculum nutrient broth was prepared according to AOAC specifications so as to contain 0.6-1 million organisms per drop of inoculum, each drop being equal to 0.05 ml. The broth itself was trypticase soy broth BBL 11766 prepared according to label instructions. Accordingly, the broth was prestandardized for the microorganisms in question in order to assure that the number of organisms remained constant within the margins of statistical allowance during the test period. […] Other gram positive bacteria pathogens were similarly evaluated.

[12] = test system: Candida albicans strain 16464; details: Sabouraud dextrose broth
Procedure: as §3

Micrococcus luteus 9341 = test system: Micrococcus luteus 9341
Procedure: as §3

Bacillus subtilis 6633 = test system: Bacillus subtilis 6633
Procedure: as §3

[13] = test system: Staphylococcus epidermidis 12228; details: 24 hours at 34-35° C., 10 PPM sodium persulfate
Procedure: as §3

[14] = test system: Saccharomycetpideae variety; details: Sabouraud dextrose broth
Source text: Silver tetroxide was further evaluated in analogous nutrient used for yeasts and molds, namely, Sabouraud dextrose broth.

## [Ag+].[Ag+].[Ag+].[Ag+].[O-2].[O-2].[O-2].[O-2] [Tetrasilver tetroxide]
[1]
  minimal inhibiting concentration required for 100% kills: 1.25 PPM
Candida albercans
  concentration at which totally killed: 2.5 PPM
Streptococcus faecalis
  kill of colonies of Streptococcus faecalis: 100%
[2]; single dose toxicity
  FDA toxicity category: category IV
[2]; single dose, 3% concentrate, all animals survived
  LD50: greater than 5000 mg./Kg.
[3]
  toxicity category (acute dermal): category III
[3]; all animals survived maximum dose
  dermal LD50: greater than 2000 mg./Kg.
[4]
  FDA category for eye effects: category IV
  eye irritation: no eye irritation
Staphylococcus aureus; Staphylococcus aureus 9027
  minimal concentration to inhibit the microorganism: 2.5 PPM
Staphylococcus aureus; Staphylococcus aureus 27543
  minimal concentration to inhibit the microorganism: 5.0 PPM
[5]
  FDA category as dermal agent: category IV
[5]; prolonged exposure
  dermal reactions (edema, erythema, ulceration, necrosis, tissue destruction): none
Chorella species
  concentration effecting 100% kills of algae: about 1 PPM
[6]
  kills: 100%
E. coli [7]
  kill of colonies of E. coli: 100%
[8]
  kills: 100%
[9]
  concentration achieving 100% kills: 5.0 PPM
E. coli [10]; E. coli strain 10231
  concentration achieving 100% kills: 2.5 PPM
E. coli [10]; E. coli strain 25254
  concentration achieving 100% kills: 2.5 PPM
[11]
  minimal inhibiting concentration required for 100% kills: 2.50 PPM
[12]
  concentration completely inhibiting growth: 2.5 PPM
Micrococcus luteus 9341
  minimal inhibiting concentration required for 100% kills: 1.25 PPM
Bacillus subtilis 6633
  minimal inhibiting concentration required for 100% kills: 5.00 PPM
[13]
  minimal concentration to inhibit the microorganism: 0.625 PPM
[14]
  concentration at which totally killed: 1.25 PPM
